Reference: ChEMBL document CHEMBL4680347, “Discovery of novel 1,3,5-triazine derivatives as potent inhibitor of cervical cancer via dual inhibition of PI3K/mTOR” (Bioorg Med Chem, 2021)
Values belong to the compound of their own block, whether it stands above or below them. The source made the active and inactive calls. The rule behind the calls is not given here.

Columns and labels:
[1] = test system: HepG2; experiment: Anticancer activity against human HepG2 cells assessed as inhibition of cell proliferation measured after 48 hrs by MTT assay; format: functional, cell-based; settings: HepG2, 48 h
[2] = test system: Mus musculus; experiment: Reduction in p-PI3K levels in BALB/c mouse tumor xenografted with human HeLa cells at 5 to 15 mg/kg, po by Western blot analysis; format: functional, organism-based; settings: Neoplasm, dose 5-15 mg/kg
[3] = test system: HeLa; experiment: Induction of apoptosis in human HeLa cells assessed as early apoptotic cells at 12 uM measured after 24 hrs by Annexin-V/FITC and propidium iodide staining based flow cytometry (reference value: 1.60%); format: functional
[4] = test system: HeLa; experiment: Induction of apoptosis in human HeLa cells assessed as increase in Bcl-2 level upto 12 uM by Western blot analysis; format: functional, cell-based; settings: dose microM <=12
[5] = test system: HeLa; experiment: Induction of cell cycle arrest in human HeLa cells assessed as accumulation at G2 phase at 8 uM after 24 hrs by RNase A/PI-staining based flow cytometric analysis (reference value: 30.62%); format: functional
[6] = test system: MCF7; experiment: Anticancer activity against human MCF-7 cells assessed as inhibition of cell proliferation measured after 48 hrs by MTT assay; format: functional, cell-based; settings: MCF7, 48 h
[7] = test system: HeLa; experiment: Inhibition of PI3K/AKT pathway in human HeLa cells assessed as reduction phosphorylated PI3K level upto 12 uM by Western blot analysis; format: cell-based; settings: dose microM <=12
[8] = test system: HeLa; experiment: Inhibition of cell migration in human HeLa cells incubated for 72 hrs by wound healing assay; format: functional, cell-based; settings: dose 4-12 µM
[9] = test system: HeLa; experiment: Induction of apoptosis in human HeLa cells assessed as late apoptotic cells at 8 uM measured after 24 hrs by Annexin-V/FITC and propidium iodide staining based flow cytometry (reference value: 3.4%); format: functional
[10] = test system: HeLa; experiment: Antiproliferative activity against human HeLa cells assessed as reduction in cell viability measured upto 12 uM by MTT assay; format: functional, cell-based; settings: dose microM <=12, time 24-72 hrs, TDE = time-dependent effect
[11] = test system: HeLa; experiment: Induction of cell cycle arrest in human HeLa cells assessed as accumulation at G1 phase at 8 uM after 24 hrs by RNase A/PI-staining based flow cytometric analysis (reference value: 52.21%); format: functional
[12] = test system: HeLa; experiment: Induction of cell cycle arrest in human HeLa cells assessed as accumulation at G2 phase at 12 uM after 24 hrs by RNase A/PI-staining based flow cytometric analysis (reference value: 30.62%); format: functional
[13] = test system: HeLa; experiment: Anticancer activity against human HeLa cells assessed as inhibition of cell proliferation measured after 48 hrs by MTT assay; format: functional, cell-based
[14] = target: Serine/threonine-protein kinase mTOR (Homo sapiens, UniProt P42345); experiment: Inhibition of mTOR (unknown origin) measured after 45 mins by LANCE Ultra assay
[15] = test system: HeLa; experiment: Induction of apoptosis in human HeLa cells assessed as reduction in BAX level upto 12 uM by Western blot analysis; format: functional, cell-based; settings: dose microM <=12
[16] = test system: HeLa; experiment: Antitumor activity against human HeLa cells xenografted in orally dosed BALB/c mouse assessed as reduction in tumor weight measured for 24 days; format: functional, organism-based; settings: dose 5-15 mg/kg, time 24.0 day
[17] = test system: HeLa; experiment: Inhibition of colony formation in human HeLa cells measured after 24 hrs by crystal violet staining based colony formation assay; format: functional, cell-based; settings: dose 4-12 µM
[18] = test system: HeLa; experiment: Antitumor activity against human HeLa cells xenografted in orally dosed BALB/c mouse assessed as reduction in tumor volume measured for 24 days; format: functional, organism-based; settings: dose 5-15 mg/kg, time 24.0 day
[19] = test system: HeLa; experiment: Induction of cell cycle arrest in human HeLa cells assessed as accumulation at G1 phase at 4 uM after 24 hrs by RNase A/PI-staining based flow cytometric analysis (reference value: 52.21%); format: functional
[20] = test system: HeLa; experiment: Inhibition of cell invasion in human HeLa cells incubated for 24 hrs by crystal violet staining based transwell assay; format: functional; settings: dose 4-12 µM
[21] = test system: Mus musculus; experiment: Reduction in p-AKT levels in BALB/c mouse tumor xenografted with human HeLa cells at 5 to 15 mg/kg, po by Western blot analysis; format: functional, organism-based; settings: Neoplasm, dose 5-15 mg/kg
[22] = test system: HeLa; experiment: Antiproliferative activity against human HeLa cells assessed as reduction in cell viability incubated for 24 to 72 hr by MTT assay; format: functional, cell-based; settings: dose microM <=12, time 24-72 hrs
[23] = target: Phosphatidylinositol 4,5-bisphosphate 3-kinase catalytic subunit gamma isoform (Homo sapiens, UniProt P48736); experiment: Inhibition of PI3Kgamma (unknown origin) measured after 1 hr by ADP-glo plus luminescence assay
Phosphatidylinositol 4,5-bisphosphate 3-kinase catalytic subunit gamma isoform, sequence (P48736 whole entry, canonical isoform): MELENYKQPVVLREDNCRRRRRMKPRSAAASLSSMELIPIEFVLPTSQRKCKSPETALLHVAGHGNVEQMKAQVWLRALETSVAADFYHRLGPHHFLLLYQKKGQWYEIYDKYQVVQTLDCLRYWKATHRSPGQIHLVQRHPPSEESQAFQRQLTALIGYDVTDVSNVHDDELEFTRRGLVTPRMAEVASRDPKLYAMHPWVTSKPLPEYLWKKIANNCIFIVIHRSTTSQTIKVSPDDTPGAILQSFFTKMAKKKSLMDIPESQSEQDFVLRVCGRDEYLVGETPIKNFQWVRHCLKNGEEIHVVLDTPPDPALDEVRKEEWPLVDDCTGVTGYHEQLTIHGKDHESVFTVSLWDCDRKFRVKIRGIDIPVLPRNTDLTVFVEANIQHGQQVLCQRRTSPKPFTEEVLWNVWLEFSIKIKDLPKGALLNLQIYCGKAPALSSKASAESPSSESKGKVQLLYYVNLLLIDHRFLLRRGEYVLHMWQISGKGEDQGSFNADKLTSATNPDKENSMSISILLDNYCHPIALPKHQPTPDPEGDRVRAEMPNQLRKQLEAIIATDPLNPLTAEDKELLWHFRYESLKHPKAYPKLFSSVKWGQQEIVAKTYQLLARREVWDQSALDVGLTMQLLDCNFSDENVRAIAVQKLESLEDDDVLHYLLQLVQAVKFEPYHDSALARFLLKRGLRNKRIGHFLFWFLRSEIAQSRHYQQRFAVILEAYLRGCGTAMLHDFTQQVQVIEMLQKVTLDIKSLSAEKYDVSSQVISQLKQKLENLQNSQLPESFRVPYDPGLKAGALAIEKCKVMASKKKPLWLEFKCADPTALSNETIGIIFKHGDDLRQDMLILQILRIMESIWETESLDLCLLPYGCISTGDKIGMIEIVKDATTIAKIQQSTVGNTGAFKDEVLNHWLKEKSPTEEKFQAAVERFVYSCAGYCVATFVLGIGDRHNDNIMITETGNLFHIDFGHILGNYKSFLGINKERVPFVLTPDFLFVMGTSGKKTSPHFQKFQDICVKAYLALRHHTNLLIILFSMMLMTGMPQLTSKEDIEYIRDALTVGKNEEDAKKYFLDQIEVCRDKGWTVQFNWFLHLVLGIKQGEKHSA

[24] = target: Phosphatidylinositol 4,5-bisphosphate 3-kinase catalytic subunit beta isoform (Homo sapiens, UniProt P42338); experiment: Inhibition of PI3Kbeta (unknown origin) measured after 1 hr by ADP-glo plus luminescence assay
Phosphatidylinositol 4,5-bisphosphate 3-kinase catalytic subunit beta isoform, sequence (P42338 whole entry, canonical isoform): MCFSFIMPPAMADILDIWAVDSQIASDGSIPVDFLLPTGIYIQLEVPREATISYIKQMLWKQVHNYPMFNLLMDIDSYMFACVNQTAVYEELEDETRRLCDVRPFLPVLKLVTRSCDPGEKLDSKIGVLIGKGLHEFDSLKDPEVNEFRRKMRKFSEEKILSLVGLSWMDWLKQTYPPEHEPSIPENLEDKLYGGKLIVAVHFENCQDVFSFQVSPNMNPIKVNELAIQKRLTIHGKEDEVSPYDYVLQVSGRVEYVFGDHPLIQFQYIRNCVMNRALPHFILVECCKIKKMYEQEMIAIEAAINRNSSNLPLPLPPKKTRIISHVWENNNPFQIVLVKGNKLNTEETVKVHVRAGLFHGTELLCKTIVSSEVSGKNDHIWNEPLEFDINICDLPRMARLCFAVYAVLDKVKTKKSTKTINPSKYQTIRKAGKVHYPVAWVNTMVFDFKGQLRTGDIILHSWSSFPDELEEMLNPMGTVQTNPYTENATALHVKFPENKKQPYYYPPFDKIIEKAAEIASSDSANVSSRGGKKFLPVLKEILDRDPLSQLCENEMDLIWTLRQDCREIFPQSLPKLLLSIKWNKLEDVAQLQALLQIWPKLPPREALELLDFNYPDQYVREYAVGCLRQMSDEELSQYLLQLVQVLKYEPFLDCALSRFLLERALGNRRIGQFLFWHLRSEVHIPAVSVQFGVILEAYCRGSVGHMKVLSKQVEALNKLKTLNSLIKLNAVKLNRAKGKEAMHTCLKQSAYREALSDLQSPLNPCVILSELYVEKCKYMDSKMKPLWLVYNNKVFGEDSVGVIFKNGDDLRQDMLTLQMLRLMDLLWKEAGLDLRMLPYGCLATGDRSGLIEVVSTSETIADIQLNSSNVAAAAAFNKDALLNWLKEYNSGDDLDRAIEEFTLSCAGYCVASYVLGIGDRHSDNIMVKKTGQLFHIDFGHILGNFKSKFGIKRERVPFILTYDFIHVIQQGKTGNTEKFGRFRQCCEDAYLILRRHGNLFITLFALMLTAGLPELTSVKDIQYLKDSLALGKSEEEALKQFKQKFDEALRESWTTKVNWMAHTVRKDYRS

[25] = test system: HeLa; experiment: Induction of cell cycle arrest in human HeLa cells assessed as accumulation at S phase at 8 uM after 24 hrs by RNase A/PI-staining based flow cytometric analysis (reference value: 17.17%); format: functional
[26] = target: Phosphatidylinositol 4,5-bisphosphate 3-kinase catalytic subunit alpha isoform (Homo sapiens, UniProt P42336); experiment: Inhibition of PI3Kalpha (unknown origin) measured after 1 hr by ADP-glo plus luminescence assay
Phosphatidylinositol 4,5-bisphosphate 3-kinase catalytic subunit alpha isoform, sequence (P42336 whole entry, canonical isoform): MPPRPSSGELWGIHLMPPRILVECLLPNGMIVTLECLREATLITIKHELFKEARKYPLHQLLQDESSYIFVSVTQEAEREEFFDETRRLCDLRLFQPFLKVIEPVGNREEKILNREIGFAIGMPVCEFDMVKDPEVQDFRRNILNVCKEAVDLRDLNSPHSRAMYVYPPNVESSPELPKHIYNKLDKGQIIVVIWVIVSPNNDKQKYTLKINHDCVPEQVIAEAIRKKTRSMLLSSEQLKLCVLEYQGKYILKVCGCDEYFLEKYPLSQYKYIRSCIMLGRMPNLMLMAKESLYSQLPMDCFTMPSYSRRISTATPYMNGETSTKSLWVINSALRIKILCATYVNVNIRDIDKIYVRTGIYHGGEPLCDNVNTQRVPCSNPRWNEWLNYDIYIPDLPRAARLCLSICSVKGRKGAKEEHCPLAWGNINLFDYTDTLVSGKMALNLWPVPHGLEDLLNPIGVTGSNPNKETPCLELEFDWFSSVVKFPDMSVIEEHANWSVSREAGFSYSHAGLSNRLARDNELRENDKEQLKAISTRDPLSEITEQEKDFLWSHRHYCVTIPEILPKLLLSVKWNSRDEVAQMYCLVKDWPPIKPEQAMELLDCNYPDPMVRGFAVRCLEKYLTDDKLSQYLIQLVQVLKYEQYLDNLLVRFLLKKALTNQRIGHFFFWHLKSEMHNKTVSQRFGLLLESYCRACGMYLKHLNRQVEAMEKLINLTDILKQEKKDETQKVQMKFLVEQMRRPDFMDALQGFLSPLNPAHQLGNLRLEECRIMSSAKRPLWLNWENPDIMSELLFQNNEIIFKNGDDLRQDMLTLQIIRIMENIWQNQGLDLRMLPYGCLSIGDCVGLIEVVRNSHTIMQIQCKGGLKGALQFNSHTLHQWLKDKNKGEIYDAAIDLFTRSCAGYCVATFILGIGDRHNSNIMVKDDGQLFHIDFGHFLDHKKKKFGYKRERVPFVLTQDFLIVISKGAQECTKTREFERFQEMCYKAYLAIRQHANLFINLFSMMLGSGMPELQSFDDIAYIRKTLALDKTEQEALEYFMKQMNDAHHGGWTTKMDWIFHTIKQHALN

[27] = test system: HeLa; experiment: Induction of cell cycle arrest in human HeLa cells assessed as accumulation at G1 phase at 12 uM after 24 hrs by RNase A/PI-staining based flow cytometric analysis (reference value: 52.21%); format: functional
[28] = test system: HeLa; experiment: Induction of cell cycle arrest in human HeLa cells assessed as accumulation at S phase at 4 uM after 24 hrs by RNase A/PI-staining based flow cytometric analysis (reference value: 17.17%); format: functional
[29] = test system: HeLa; experiment: Induction of apoptosis in human HeLa cells assessed as late apoptotic cells at 4 uM measured after 24 hrs by Annexin-V/FITC and propidium iodide staining based flow cytometry (reference value: 3.4%); format: functional
[30] = test system: HeLa; experiment: Inhibition of PI3K/AKT pathway in human HeLa cells assessed as reduction phosphorylated Akt level upto 12 uM by Western blot analysis; format: cell-based; settings: dose microM <=12
[31] = test system: Mus musculus; experiment: Reduction in p-mTOR levels in BALB/c mouse tumor xenografted with human HeLa cells at 5 to 15 mg/kg, po by Western blot analysis; format: functional, organism-based; settings: Neoplasm, dose 5-15 mg/kg
[32] = test system: HeLa; experiment: Induction of apoptosis in human HeLa cells assessed as late apoptotic cells at 12 uM measured after 24 hrs by Annexin-V/FITC and propidium iodide staining based flow cytometry (reference value: 3.4%); format: functional
[33] = test system: HeLa; experiment: Induction of apoptosis in human HeLa cells at 4 to 12 uM incubated for 48 hrs by Hoechst 33342 staining based fluorescence microscopy; format: functional, cell-based; settings: dose 4-12 µM
[34] = target: T1, Phosphatidylinositol 4,5-bisphosphate 3-kinase catalytic subunit delta isoform (Homo sapiens, UniProt O00329); experiment: Inhibition of PI3Kdelta (unknown origin) measured after 1 hr by ADP-glo plus luminescence assay
T1 sequence (O00329 whole entry): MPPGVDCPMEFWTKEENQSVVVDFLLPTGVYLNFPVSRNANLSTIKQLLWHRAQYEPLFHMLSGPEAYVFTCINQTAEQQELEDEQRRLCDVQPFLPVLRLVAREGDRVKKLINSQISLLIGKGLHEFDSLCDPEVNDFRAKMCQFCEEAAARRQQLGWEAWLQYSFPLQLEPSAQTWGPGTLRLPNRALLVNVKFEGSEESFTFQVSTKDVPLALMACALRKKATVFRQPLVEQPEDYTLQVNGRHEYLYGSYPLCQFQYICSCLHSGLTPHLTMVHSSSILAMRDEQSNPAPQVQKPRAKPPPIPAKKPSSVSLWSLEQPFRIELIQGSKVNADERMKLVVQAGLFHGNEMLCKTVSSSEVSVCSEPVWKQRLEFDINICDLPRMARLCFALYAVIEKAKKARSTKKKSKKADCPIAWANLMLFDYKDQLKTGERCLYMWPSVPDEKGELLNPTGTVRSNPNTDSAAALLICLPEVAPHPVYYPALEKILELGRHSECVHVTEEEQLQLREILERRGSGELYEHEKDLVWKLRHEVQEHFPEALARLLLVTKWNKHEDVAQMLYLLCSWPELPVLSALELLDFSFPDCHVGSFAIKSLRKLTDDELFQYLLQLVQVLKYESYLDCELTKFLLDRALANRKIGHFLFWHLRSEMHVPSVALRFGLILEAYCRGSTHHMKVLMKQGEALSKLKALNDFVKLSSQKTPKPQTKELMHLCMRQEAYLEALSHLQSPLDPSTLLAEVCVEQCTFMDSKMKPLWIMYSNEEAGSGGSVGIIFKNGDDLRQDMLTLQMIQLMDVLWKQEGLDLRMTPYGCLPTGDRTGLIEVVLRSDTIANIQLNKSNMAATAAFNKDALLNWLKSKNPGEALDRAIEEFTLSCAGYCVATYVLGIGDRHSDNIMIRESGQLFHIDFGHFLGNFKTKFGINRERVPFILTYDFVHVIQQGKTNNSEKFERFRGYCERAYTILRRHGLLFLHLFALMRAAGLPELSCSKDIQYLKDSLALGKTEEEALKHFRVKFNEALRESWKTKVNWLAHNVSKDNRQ

[35] = test system: HeLa; experiment: Induction of cell cycle arrest in human HeLa cells assessed as accumulation at S phase at 12 uM after 24 hrs by RNase A/PI-staining based flow cytometric analysis (reference value: 17.17%); format: functional
[36] = test system: HeLa; experiment: Induction of cell cycle arrest in human HeLa cells assessed as accumulation at G2 phase at 4 uM after 24 hrs by RNase A/PI-staining based flow cytometric analysis (reference value: 30.62%); format: functional
[37] = test system: HeLa; experiment: Induction of apoptosis in human HeLa cells assessed as early apoptotic cells at 8 uM measured after 24 hrs by Annexin-V/FITC and propidium iodide staining based flow cytometry (reference value: 1.60%); format: functional
[38] = test system: MDA-MB-231; experiment: Anticancer activity against human […] cells assessed as inhibition of cell proliferation measured after 48 hrs by MTT assay; format: functional, cell-based; settings: MDA-MB-231, 48 h
[39] = test system: HeLa; experiment: Induction of apoptosis in human HeLa cells assessed as early apoptotic cells at 4 uM measured after 24 hrs by Annexin-V/FITC and propidium iodide staining based flow cytometry (reference value: 1.60%); format: functional

Compound: O=S(=O)(c1ccc(O)cc1)N1CCN(c2nc(NCCN3CCOCC3)nc(N3CCOCC3)n2)CC1
IC50 [1]: 12.2 µM
inhibition [2]: Active
Activity [3]: 2.1%
Activity [4]: Active
Activity [5]: 15.43%
IC50 [6]: 16.3 µM
inhibition [7]: Dose-dependent effect
Activity [8]: Dose-dependent effect
Activity [9]: 16.94%
Activity [10]: Tde
Activity [11]: 20.38%
Activity [12]: 14.32%
IC50 [13]: 2.21 µM
IC50 [14]: 0.00845 µM
Activity [15]: Active
Activity [16]: Dose-dependent effect
Activity [17]: Dose-dependent effect
Activity [18]: Dose-dependent effect
Activity [19]: 59.18%
Activity [20]: Dose-dependent effect
inhibition [21]: Active
Activity [22]: Dose-dependent effect
IC50 [23]: 0.0246 µM
IC50 [24]: 0.0123 µM
Activity [25]: 19.52%
IC50 [26]: 0.00341 µM
Activity [27]: 75.03%
Activity [28]: 20.44%
Activity [29]: 5.07%
inhibition [30]: Active
inhibition [31]: Active
Activity [32]: 17.98%
Activity [33]: Active
IC50 [34]: 0.0353 µM
Activity [35]: 10.65%
Activity [36]: 20.38%
Activity [37]: 1.84%
IC50 [38]: 15.8 µM
Activity [39]: 2.71%

Compound: O=[N+]([O-])c1ccccc1S(=O)(=O)N1CCN(c2nc(NCCN3CCOCC3)nc(N3CCOCC3)n2)CC1
IC50 [14]: 0.0663 µM
IC50 [26]: 0.0423 µM

Compound: COc1ccccc1S(=O)(=O)N1CCN(c2nc(NCCN3CCOCC3)nc(N3CCOCC3)n2)CC1
IC50 [14]: 0.0255 µM
IC50 [26]: 0.0397 µM

Compound: O=S(=O)(c1ccc(Cl)cc1)N1CCN(c2nc(NCCN3CCOCC3)nc(N3CCOCC3)n2)CC1
IC50 [14]: 0.0282 µM
IC50 [26]: 0.0309 µM

Compound: O=S(=O)(c1ccccc1)N1CCN(c2nc(NCCN3CCOCC3)nc(N3CCOCC3)n2)CC1
IC50 [14]: 0.0704 µM
IC50 [26]: 0.0406 µM

Compound: Cc1ccccc1S(=O)(=O)N1CCN(c2nc(NCCN3CCOCC3)nc(N3CCOCC3)n2)CC1
IC50 [14]: 0.0323 µM
IC50 [26]: 0.032 µM

Further lines, results first:

IC50 [14]: 0.0768 µM
IC50 [26]: 0.0389 µM
Compound: O=[N+]([O-])c1cccc(S(=O)(=O)N2CCN(c3nc(NCCN4CCOCC4)nc(N4CCOCC4)n3)CC2)c1

IC50 [26]: 0.0187 µM
Compound: Cc1cccc(S(=O)(=O)N2CCN(c3nc(NCCN4CCOCC4)nc(N4CCOCC4)n3)CC2)c1

IC50 [14]: 0.0937 µM
IC50 [26]: 0.11 µM
Compound: O=S(=O)(c1cccc(F)c1)N1CCN(c2nc(NCCN3CCOCC3)nc(N3CCOCC3)n2)CC1
